Data reported in patent publication US4016159A, “Acylamino-cephem-carboxylic acids containing an amidino or guanidino group in the molecule” (Hoechst Aktiengesellschaft, priority 1973, dated 1977).
Values after ≈ are worked out from the molar mass of the structure shown.

Experiments:
Type in all cases: cell-based
[1] = tested on: Staphylococcus aureus SG 511; test: Minimum inhibition concentration (MIC), Table 5; details: Staphylococcus aureus, SG511, Germ: Staphylococcus aureus SG 511; read-out: Minimum inhibition concentration (MIC)
From the text: (§1) Minimum inhibition concentration (MIC) in γ/ml
Germ: Staphylococcus aureus SG 511

[2] = tested on: Staphylococcus aureus 285; test: Minimum inhibition concentration (MIC), Table 1; details: Staphylococcus aureus, 285, Germ: Staphylococcus aureus 285; read-out: Minimum inhibition concentration (MIC)
From the text: as §1
Germ: Staphylococcus aureus 285

Streptococcus D = test: Minimum inhibition concentration (MIC), Table 4; details: Streptococcus, Germ: Streptococcus D; read-out: Minimum inhibition concentration (MIC)
From the text: as §1

Streptococcus pyogenes A = test: Minimum inhibition concentration (MIC), Table 3; details: Germ: Streptococcus pyogenes A; read-out: Minimum inhibition concentration MIC
From the text: Minimum inhibition concentration MIC in γ/ml
Germ: Streptococcus pyogenes A

O=C(Cc1ccc(C2=NCCCN2)cc1)NC1C(=O)N2C(C(=O)O)=C(CSc3nnnn3-c3ccccc3)CSC12 (stereo not drawn) [Example 71, 3-[(1-phenyl-1-H-tetrazole-5-yl)-thiomethyl]-7-[4-(1,4,5,6-tetrahydropyrimide-2-yl)-phenyl-acetamido]-Δ 3-cephem-4-carboxylic acid]
MIC [1]: 0.0625 to 0.078 µg/mL (≈ 0.106 to 0.132 µM) | MIC [2]: 0.5 to 1.25 µg/mL (≈ 0.846 to 2.12 µM) | MIC (Streptococcus D): 10 to 50 µg/mL (≈ 16.9 to 84.6 µM) | MIC (Streptococcus pyogenes A): 0.000391 to 0.0078 µg/mL (≈ 0.000662 to 0.0132 µM)

O=C(Cc1ccc(C2=NCCN2)cc1)NC1C(=O)N2C(C(=O)O)=C(CSc3nnc(-c4ccccc4)o3)CSC12 (stereo not drawn) [Example 116, 3-[(5-phenyl-1,3,4-oxadiazole-2-yl)-thiomethyl]-7-[4-(imidazoline-2-yl)-phenylacetamido]-Δ3-cephem-4-carboxylic acid]
MIC [1]: 0.0625 to 0.078 µg/mL (≈ 0.108 to 0.135 µM) | MIC [2]: 0.5 to 1.25 µg/mL (≈ 0.867 to 2.17 µM) | MIC (Streptococcus D): 10 to 50 µg/mL (≈ 17.3 to 86.7 µM) | MIC (Streptococcus pyogenes A): 0.000391 to 0.0078 µg/mL (≈ 0.000678 to 0.0135 µM)

O=C(Cc1ccc(C2=NCCCN2)cc1)NC1C(=O)N2C(C(=O)O)=C(CSc3ccc([N+](=O)[O-])cn3)CSC12 (stereo not drawn) [Example 105, 3-[(5-nitropyridine-2-yl)-thiomethyl]-7-[4-(1,4,5,6-tetrahydropyrimide-2-yl)-phenylacetamido]-Δ3-cephem-4-carboxylic acid]
MIC [1]: 0.0625 to 0.078 µg/mL (≈ 0.11 to 0.137 µM) | MIC [2]: 0.156 to 0.391 µg/mL (≈ 0.274 to 0.688 µM) | MIC (Streptococcus D): 10 to 50 µg/mL (≈ 17.6 to 87.9 µM) | MIC (Streptococcus pyogenes A): 0.000391 to 0.0078 µg/mL (≈ 0.000688 to 0.0137 µM)

Cc1nnc(SCC2=C(C(=O)O)N3C(=O)C(NC(=O)COc4ccc(C(=N)N)cc4)C3SC2)o1 (stereo not drawn) [Example 38, 3-[(5-methyl-1,3,4-oxadiazole-2-yl)-thiomethyl]-7-(4-amidinophenoxy-acetamido)-Δ 3-cephem-4-carboxylic acid]
MIC [1]: 0.0625 to 0.078 µg/mL (≈ 0.124 to 0.155 µM) | MIC [2]: 0.156 to 0.391 µg/mL (≈ 0.309 to 0.775 µM) | MIC (Streptococcus D): 10 to 50 µg/mL (≈ 19.8 to 99.1 µM) | MIC (Streptococcus pyogenes A): 0.008 to 0.0156 µg/mL (≈ 0.0159 to 0.0309 µM)

N=C(N)c1ccc(OCC(=O)NC2C(=O)N3C(C(=O)O)=C(CSc4ccccn4)CSC23)cc1 (stereo not drawn) [Example 29, 3-[(pyride-2-yl)-thiomethyl]-7-(4-amidinophenoxyacetamido)-Δ 3-cephem-4-carboxylic acid]
MIC [1]: 0.0625 to 0.078 µg/mL (≈ 0.125 to 0.156 µM) | MIC [2]: 0.5 to 1.25 µg/mL (≈ 1 to 2.5 µM) | MIC (Streptococcus D): 10 to 50 µg/mL (≈ 20 to 100 µM) | MIC (Streptococcus pyogenes A): 0.000391 to 0.0078 µg/mL (≈ 0.000783 to 0.0156 µM)

N=C(N)c1ccc(OCC(=O)NC2C(=O)N3C(C(=O)O)=C(CSc4nnc(-c5ccccc5)s4)CSC23)cc1 (stereo not drawn) [Example 65, 3-[(5-phenyl-1,3,4-thiadiazole-2-yl)-thiomethyl]-7-(4-amidinophenoxyacetamido)-Δ 3-cephem-4-carboxylic acid]
MIC [1]: 0.0196 to 0.0391 µg/mL (≈ 0.0336 to 0.0671 µM) | MIC [2]: 0.156 to 0.391 µg/mL (≈ 0.268 to 0.671 µM) | MIC (Streptococcus D): 10 to 50 µg/mL (≈ 17.2 to 85.8 µM) | MIC (Streptococcus pyogenes A): 0.000391 to 0.0078 µg/mL (≈ 0.000671 to 0.0134 µM)

CCc1nnc(SCC2=C(C(=O)O)N3C(=O)C(NC(=O)Cc4ccc(C(=N)N)cc4)C3SC2)s1 (stereo not drawn) [Example 122, 3-[(5-ethyl-1,3,4-thiadiazole-2-yl)-thiomethyl]-7-(4-amidino-phenylacetamido)-Δ3-cephem-4-carboxylic acid]
MIC [1]: 0.0625 to 0.078 µg/mL (≈ 0.121 to 0.15 µM) | MIC [2]: 0.5 to 1.25 µg/mL (≈ 0.964 to 2.41 µM) | MIC (Streptococcus D): 10 to 50 µg/mL (≈ 19.3 to 96.4 µM) | MIC (Streptococcus pyogenes A): 0.008 to 0.0156 µg/mL (≈ 0.0154 to 0.0301 µM)

O=C(Cc1ccc(C2=NCCCN2)cc1)NC1C(=O)N2C(C(=O)O)=C(CSc3nc(-c4ccccc4)cs3)CSC12 (stereo not drawn) [Example 14, 3-[(4-phenyl-thiazole-2-yl)-thiomethyl]-7-[4-(1,4,5,6-tetrahydropyrimide-2-yl)-phenylacetamido]-Δ 3-cephem-4-carboxylic acid]
MIC [1]: 0.0625 to 0.078 µg/mL (≈ 0.103 to 0.129 µM) | MIC [2]: 0.5 to 1.25 µg/mL (≈ 0.825 to 2.06 µM) | MIC (Streptococcus D): 10 to 50 µg/mL (≈ 16.5 to 82.5 µM) | MIC (Streptococcus pyogenes A): 0.008 to 0.0156 µg/mL (≈ 0.0132 to 0.0258 µM)

N=C(N)c1ccc(OCC(=O)NC2C(=O)N3C(C(=O)O)=C(CSc4nnnn4-c4ccccc4)CSC23)cc1 (stereo not drawn) [Example 31, 3-[(1-phenyl-1-H-tetrazole-5yl)-thiomethyl]-7-(4-amidinophenoxyacetamido)-Δ3-cephem-4-carboxylic acid]
MIC [1]: 0.0196 to 0.0391 µg/mL (≈ 0.0346 to 0.069 µM) | MIC [2]: 0.156 to 0.391 µg/mL (≈ 0.275 to 0.69 µM) | MIC (Streptococcus D): 10 to 50 µg/mL (≈ 17.6 to 88.2 µM) | MIC (Streptococcus pyogenes A): 0.000391 to 0.0078 µg/mL (≈ 0.00069 to 0.0138 µM)

COc1cc(C(=N)N)ccc1OCC(=O)NC1C(=O)N2C(C(=O)O)=C(CSc3nncs3)CSC12 (stereo not drawn) [Example 127]
MIC [1]: 0.0625 to 0.078 µg/mL (≈ 0.116 to 0.145 µM) | MIC [2]: 0.156 to 0.391 µg/mL (≈ 0.291 to 0.729 µM) | MIC (Streptococcus pyogenes A): 0.000391 to 0.0078 µg/mL (≈ 0.000729 to 0.0145 µM)

N=C(N)c1ccc(CC(=O)NC2C(=O)N3C(C(=O)O)=C(CSc4ccc5ccccc5n4)CSC23)cc1 (stereo not drawn) [Example 91, 3-quinoline[-2-yl-thiomethyl]-7-[4-amidino-phenyl-acetamido]-Δ 3-cephem-4-carboxylic acid]
MIC [1]: 0.0625 to 0.078 µg/mL (≈ 0.117 to 0.146 µM) | MIC [2]: 0.156 to 0.391 µg/mL (≈ 0.292 to 0.733 µM) | MIC (Streptococcus pyogenes A): 0.000391 to 0.0078 µg/mL (≈ 0.000733 to 0.0146 µM)

CCCc1nnc(SCC2=C(C(=O)O)N3C(=O)C(NC(=O)COc4ccc(C5=NCCN5)cc4)C3SC2)o1 (stereo not drawn) [Example 41, 3-[(5-n-propyl-1,3,4-oxadiazole-2-yl)-thiomethyl]-7-[4-(imidazoline-2-yl)-phenoxyacetamido]-Δ 3-cephem-4-carboxylic acid]
MIC [2]: 0.5 to 1.25 µg/mL (≈ 0.895 to 2.24 µM) | MIC (Streptococcus D): 10 to 50 µg/mL (≈ 17.9 to 89.5 µM) | MIC (Streptococcus pyogenes A): 0.000391 to 0.0078 µg/mL (≈ 0.0007 to 0.014 µM)

Cc1csc(SCC2=C(C(=O)O)N3C(=O)C(NC(=O)Cc4ccc(C(=N)N)cc4)C3SC2)n1 (stereo not drawn) [Example 5, 3-[(4-methyl-thioazole-2-yl)-thiomethyl]-7-(4-amidinophenyl-acetamido)-Δ3-cephem-4-carboxylic acid]
MIC [1]: 0.0625 to 0.078 µg/mL (≈ 0.124 to 0.155 µM) | MIC [2]: 0.156 to 0.391 µg/mL (≈ 0.31 to 0.776 µM) | MIC (Streptococcus D): 10 to 50 µg/mL (≈ 19.9 to 99.3 µM)
